Results published in patent US5990096A (priority 1992, dated 1999).

How the values were obtained:
[1] = Intratumour injection study: radioactivity remaining in normal skin; assay type: in vivo, Fisher 344 rat; conditions: injection into normal skin
Experimental: (§1) 1. These drugs were administrated by intratumor injection. (right frank)
At the same time, injection into normal skin (left frank) was carried out similarly.
(§2) Group A:H-5-FU 5 mg/kg+saline/0.3 ml (i.t.)
(§3) B:H-5-FU 5 mg/kg+HA 15 mg/kg/0.3 ml (s.c.)
(§4) 3H-FU without or with HA was injected as a single dose (0.3 ml) into the center of the tumor (on the right frank) with a 30 gause needle. At the same time, injection into normal skin (on the left frank) was carried out similarly.
(§5) The tumor and skin was then removed at different times (1 h,6 hr) for counting radioactivity of the remaining content in the tissue.

Fisher Bladder Carcinoma = experiment: Intratumour injection study: radioactivity remaining in tumor tissue; assay type: in vivo, Fisher 344 rat; conditions: intratumor injection
Experimental: as §1, §2, §3, §4, §5

[2] = in vivo

SMILES | Radioactivity clearance from normal tissue (skin) [1] | Radioactivity retention in tumor tissue (Fisher Bladder Carcinoma) | Side effects [2]
O=c1[nH]cc(F)c(=O)[nH]1 [Formulation 3H-5FU, 5-Fluoracil] | immediately disappeared | immediately disappeared | 
O=C(O)Cc1ccccc1Nc1c(Cl)cccc1Cl [Oral diclofenac acid] |  |  | gastritis
